In patent publication US6914045B2, “Glycopeptide antibiotics” (Wyeth Holdings Corporation, priority 2001, dated 2005):
Converted amounts (≈) assume the structure as drawn. Numbered stars: 1 amine (or outer) side, 2 acyl side, 3 side chain; on linkers, the order of the positions; unused ones are H or OH. Square brackets hold non-standard residues; d marks the D form. Peptide text beside a SMILES is read from it. * marks the point of attachment. ξ: configuration not given here. X1 = N=C1NCC(C(O)C(N[*:1])C(=O)[*:2])N1C1OC(CO)C(O)C(O)C1O; ξEnduracididine(βξ-OH,4'ξ) = N=C1NCC(C(O)C(N)C(=O)O)N1; ξPhe(4-Cl,βξ-Me) = CC(c1ccc(Cl)cc1)C(N)C(=O)O; X2 = OCC1OC(OC2C(CO)OC(*)C(O)C2O)C(O)C(O)C1O

What was measured:
Test in all cases: in vitro antibacterial evaluation, MIC by broth dilution
Assay type in all cases: cell-based
Enterococcus sp. = conditions: broth dilution, 18 hours at 35° C.; for MIC Enterococcus faecalis (GC 2242): strain GC 2242; for MIC Enterococcus faecalis (GC 4552): strain GC 4552
In short: (§1)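 MIC = lowest antibiotic concentration preventing visible growth; inoculum 5×10^5 CFU/mL; drug range 64-0.06 μg/mL; Muller-Hinton II […]; NCCLS M7-A2 guidance.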

Escherichia coli = conditions: 18 hours at 35° C.
In short: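 Step 1: dilute antibiotic across 64-0.06 μg/mL in Muller-Hinton II […]. Step 2: inoculate at 5×10^5 CFU/mL.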

Staphylococcus sp. = conditions: broth dilution, 18 hours at 35° C.
In short: as §1

Streptococcus sp. = conditions: broth dilution, 18 hours at 35° C.; for MIC Streptococcus agalactiae (GC 4564): strain GC 4564; for MIC Streptococcus pyogenes (ID-3187): strain ID-3187
In short: as §1

[1] = Enterococcus faecalis (ATCC 29212)
[2] = Enterococcus faecalis (GC 4553)
[3] = Enterococcus faecalis (GC 4554)

With `CC(C)CC(=O)OC1C(OC2C(CO)OC(Oc3ccc(CC4NC(=O)C(C(C)c5ccc(F)cc5)NC(=O)CNC(=O)C(CO)NC(=O)C(C(O)C5CNC(=N)N5C5OC(CO)C(O)C(O)C5O)NC(=O)C(C(O)C5CNC(=N)N5)NC4=O)cc3)C(O)C2O)OC(CO)C(O)C1O` (stereo not drawn) [Example 261b, Cyclo[glycyl-4-fluoro-β-methylphenylalanyl-O-[4-O-[2-O-(3-methylbutanoyl)hexopyranosyl]-hexopyranosyl]tyrosyl-3-(2-iminoimidazolidin-4-yl)seryl-3-(3-hexopyranosyl-2-imino-imidazolidin-4-yl)serylseryl]] the “MIC Enterococcus avium (GC 4558)” value (Enterococcus sp.; Enterococcus avium (GC 4558)) was 64 µg/mL (≈ 45.8 µM), the “MIC Enterococcus faecalis (ATCC 29212)” value (Enterococcus sp.; [1]) was over 64 µg/mL and the “MIC Enterococcus faecalis (GC 4553)” value (Enterococcus sp.; [2]) was 64 µg/mL (≈ 45.8 µM). The “MIC Enterococcus faecalis (GC 4554)” value (Enterococcus sp.; [3]) was over 64 µg/mL, the “MIC Enterococcus faecium (GC 2243)” value (Enterococcus sp.; Enterococcus faecium (GC 2243)) was over 64 µg/mL and the “MIC Enterococcus faecium (GC 4556)” value (Enterococcus sp.; Enterococcus faecium (GC 4556)) was 64 µg/mL (≈ 45.8 µM). For the same compound, the “MIC Enterococcus faecium (GC 4557)” value (Enterococcus sp.; Enterococcus faecium (GC 4557)) was 16 µg/mL (≈ 11.4 µM), the “MIC Enterococcus faecalis (ATCC 29212)” value (Enterococcus sp.; strain ATCC 29212) was over 64 µg/mL and the “MIC Enterococcus faecalis (GC 2242)” value (Enterococcus sp.) was 64 µg/mL (≈ 45.8 µM). The “MIC Enterococcus faecium (GC 2243)” value (Enterococcus sp.; strain GC 2243) was over 64 µg/mL, the “MIC Enterococcus faecalis (GC 4552)” value (Enterococcus sp.) was 64 µg/mL (≈ 45.8 µM) and the “MIC Enterococcus faecalis (GC 4553)” value (Enterococcus sp.; strain GC 4553) was 64 µg/mL (≈ 45.8 µM). For the same compound, the “MIC Enterococcus faecalis (GC 4554)” value (Enterococcus sp.; strain GC 4554) was over 64 µg/mL, the “MIC Enterococcus faecium (GC 4556)” value (Enterococcus sp.; strain GC 4556) was 64 µg/mL (≈ 45.8 µM) and the “MIC Enterococcus faecium (GC 4557)” value (Enterococcus sp.; strain GC 4557) was 16 µg/mL (≈ 11.4 µM). The “MIC Enterococcus avium (GC 4558)” value (Enterococcus sp.; strain GC 4558) was 64 µg/mL (≈ 45.8 µM), the “MIC Escherichia coli (ATCC 25922)” value (Escherichia coli) was over 64 µg/mL and the “MIC Escherichia coli (GC 4559)” value (Escherichia coli) was over 64 µg/mL. The “MIC Escherichia coli (GC 4560)” value (Escherichia coli) was 4 µg/mL (≈ 2.86 µM), the “MIC Coagulase Negative Staphylococcus (GC 4547)” value (Staphylococcus sp.) was 8 µg/mL (≈ 5.72 µM) and the “MIC Coagulase Negative Staphylococcus (GC 4548)” value (Staphylococcus sp.) was 4 µg/mL (≈ 2.86 µM). For the same compound, the “MIC Coagulase Negative Staphylococcus (GC 4549)” value (Staphylococcus sp.) was 4 µg/mL (≈ 2.86 µM), the “MIC Coagulase Negative Staphylococcus (GC 4551)” value (Staphylococcus sp.) was 8 µg/mL (≈ 5.72 µM) and the “MIC Staphylococcus aureus (ATCC 29213)” value (Staphylococcus sp.) was 8 µg/mL (≈ 5.72 µM). For the same compound, the “MIC Staphylococcus aureus (GC 1131)” value (Staphylococcus sp.) was 16 µg/mL (≈ 11.4 µM), the “MIC Staphylococcus aureus (GC 4541)” value (Staphylococcus sp.) was 16 µg/mL (≈ 11.4 µM) and the “MIC Staphylococcus aureus (GC 4542)” value (Staphylococcus sp.) was 16 µg/mL (≈ 11.4 µM). For the same compound, the “MIC Staphylococcus aureus (GC 4544)” value (Staphylococcus sp.) was 8 µg/mL (≈ 5.72 µM), the “MIC Staphylococcus aureus (GC 4545)” value (Staphylococcus sp.) was 16 µg/mL (≈ 11.4 µM) and the “MIC Staphylococcus aureus-SMITH (GC 4543)” value (Staphylococcus sp.) was 8 µg/mL (≈ 5.72 µM). For the same compound, the “MIC Staphylococcus haemolyticus (GC 4546)” value (Staphylococcus sp.) was 8 µg/mL (≈ 5.72 µM), the “MIC Staphylococcus aureus (ATCC 29213)” value (Staphylococcus sp.; strain ATCC 29213) was 8 µg/mL (≈ 5.72 µM) and the “MIC Staphylococcus aureus (GC 1131)” value (Staphylococcus sp.; strain GC 1131) was 16 µg/mL (≈ 11.4 µM). The “MIC Staphylococcus aureus (GC 4541)” value (Staphylococcus sp.; strain GC 4541) was 16 µg/mL (≈ 11.4 µM), the “MIC Staphylococcus aureus (GC 4542)” value (Staphylococcus sp.; strain GC 4542) was 16 µg/mL (≈ 11.4 µM) and the “MIC Staphylococcus aureus (GC 4544)” value (Staphylococcus sp.; strain GC 4544) was 8 µg/mL (≈ 5.72 µM). For the same compound, the “MIC Staphylococcus aureus (GC 4545)” value (Staphylococcus sp.; strain GC 4545) was 16 µg/mL (≈ 11.4 µM), the “MIC Streptococcus agalactiae (GC 4564)” value (Streptococcus sp.) was 8 µg/mL (≈ 5.72 µM) and the “MIC Streptococcus pyogenes (ID-3187)” value (Streptococcus sp.) was 4 µg/mL (≈ 2.86 µM).

`CC(c1ccc(Cl)cc1)C1NC(=O)CNC(=O)C(CO)NC(=O)C(C(O)C2CNC(=N)N2C2OC(CO)C(O)C(O)C2O)NC(=O)C(C(O)C2CNC(=N)N2)NC(=O)C(Cc2ccc(OC3OC(CO)C(OC4OC(CO)C(O)C(O)C4O)C(O)C3O)cc2)NC1=O` (stereo not drawn) [Example 262a, Cyclo[glycyl-4-chloro-β-methylphenylalanyl-O-(4-O-hexopyranosylhexopyranosyl)tyrosyl-3-(2-iminoimidazolidin-4-yl)seryl-3-(3-hexoopyranosyl-2-iminoimidazolidin-4-yl)serylseryl]] (cyclo(G[ξPhe(4-Cl,βξ-Me)]Y(X2)[ξEnduracididine(βξ-OH,4'ξ)][X1]S); configuration not given here) was tested, and the “MIC Enterococcus avium (GC 4558)” value (Enterococcus sp.; Enterococcus avium (GC 4558)) was over 128 µg/mL, the “MIC Enterococcus faecalis (ATCC 29212)” value (Enterococcus sp.; [1]) was over 128 µg/mL and the “MIC Enterococcus faecalis (GC 4553)” value (Enterococcus sp.; [2]) was over 128 µg/mL. For the same compound, the “MIC Enterococcus faecalis (GC 4554)” value (Enterococcus sp.; [3]) was over 128 µg/mL, the “MIC Enterococcus faecium (GC 2243)” value (Enterococcus sp.; Enterococcus faecium (GC 2243)) was over 128 µg/mL and the “MIC Enterococcus faecium (GC 4556)” value (Enterococcus sp.; Enterococcus faecium (GC 4556)) was over 128 µg/mL. The “MIC Enterococcus faecium (GC 4557)” value (Enterococcus sp.; Enterococcus faecium (GC 4557)) was over 128 µg/mL, the “MIC Enterococcus faecalis (ATCC 29212)” value (Enterococcus sp.; strain ATCC 29212) was over 128 µg/mL and the “MIC Enterococcus faecalis (GC 2242)” value (Enterococcus sp.) was over 128 µg/mL. The “MIC Enterococcus faecium (GC 2243)” value (Enterococcus sp.; strain GC 2243) was over 128 µg/mL, the “MIC Enterococcus faecalis (GC 4552)” value (Enterococcus sp.) was over 128 µg/mL and the “MIC Enterococcus faecalis (GC 4553)” value (Enterococcus sp.; strain GC 4553) was over 128 µg/mL. The “MIC Enterococcus faecalis (GC 4554)” value (Enterococcus sp.; strain GC 4554) was over 128 µg/mL, the “MIC Enterococcus faecium (GC 4556)” value (Enterococcus sp.; strain GC 4556) was over 128 µg/mL and the “MIC Enterococcus faecium (GC 4557)” value (Enterococcus sp.; strain GC 4557) was over 128 µg/mL. For the same compound, the “MIC Enterococcus avium (GC 4558)” value (Enterococcus sp.; strain GC 4558) was over 128 µg/mL, the “MIC Escherichia coli (ATCC 25922)” value (Escherichia coli) was over 128 µg/mL and the “MIC Escherichia coli (GC 4559)” value (Escherichia coli) was over 128 µg/mL. The “MIC Escherichia coli (GC 4560)” value (Escherichia coli) was 16 µg/mL (≈ 12 µM), the “MIC Coagulase Negative Staphylococcus (GC 4547)” value (Staphylococcus sp.) was 64 µg/mL (≈ 48.1 µM) and the “MIC Coagulase Negative Staphylococcus (GC 4548)” value (Staphylococcus sp.) was 64 µg/mL (≈ 48.1 µM). The “MIC Coagulase Negative Staphylococcus (GC 4549)” value (Staphylococcus sp.) was 16 µg/mL (≈ 12 µM), the “MIC Coagulase Negative Staphylococcus (GC 4551)” value (Staphylococcus sp.) was 128 µg/mL (≈ 96.3 µM) and the “MIC Staphylococcus aureus (ATCC 29213)” value (Staphylococcus sp.) was 64 µg/mL (≈ 48.1 µM). For the same compound, the “MIC Staphylococcus aureus (GC 1131)” value (Staphylococcus sp.) was 128 µg/mL (≈ 96.3 µM), the “MIC Staphylococcus aureus (GC 4541)” value (Staphylococcus sp.) was 64 µg/mL (≈ 48.1 µM) and the “MIC Staphylococcus aureus (GC 4542)” value (Staphylococcus sp.) was over 128 µg/mL. The “MIC Staphylococcus aureus (GC 4544)” value (Staphylococcus sp.) was 64 µg/mL (≈ 48.1 µM), the “MIC Staphylococcus aureus (GC 4545)” value (Staphylococcus sp.) was 64 µg/mL (≈ 48.1 µM) and the “MIC Staphylococcus aureus-SMITH (GC 4543)” value (Staphylococcus sp.) was 64 µg/mL (≈ 48.1 µM). For the same compound, the “MIC Staphylococcus haemolyticus (GC 4546)” value (Staphylococcus sp.) was 64 µg/mL (≈ 48.1 µM), the “MIC Staphylococcus aureus (ATCC 29213)” value (Staphylococcus sp.; strain ATCC 29213) was 64 µg/mL (≈ 48.1 µM) and the “MIC Staphylococcus aureus (GC 1131)” value (Staphylococcus sp.; strain GC 1131) was 128 µg/mL (≈ 96.3 µM). For the same compound, the “MIC Staphylococcus aureus (GC 4541)” value (Staphylococcus sp.; strain GC 4541) was 64 µg/mL (≈ 48.1 µM), the “MIC Staphylococcus aureus (GC 4542)” value (Staphylococcus sp.; strain GC 4542) was over 128 µg/mL and the “MIC Staphylococcus aureus (GC 4544)” value (Staphylococcus sp.; strain GC 4544) was 64 µg/mL (≈ 48.1 µM). For the same compound, the “MIC Staphylococcus aureus (GC 4545)” value (Staphylococcus sp.; strain GC 4545) was 64 µg/mL (≈ 48.1 µM), the “MIC Staphylococcus haemolyticus (GC 4546)” value (Staphylococcus sp.; strain GC 4546) was 64 µg/mL (≈ 48.1 µM) and the “MIC Coagulase Negative Staphylococcus (GC 4547)” value (Staphylococcus sp.; strain GC 4547) was 64 µg/mL (≈ 48.1 µM). For the same compound, the “MIC Coagulase Negative Staphylococcus (GC 4548)” value (Staphylococcus sp.; strain GC 4548) was 64 µg/mL (≈ 48.1 µM), the “MIC Coagulase Negative Staphylococcus (GC 4549)” value (Staphylococcus sp.; strain GC 4549) was 16 µg/mL (≈ 12 µM) and the “MIC Coagulase Negative Staphylococcus (GC 4551)” value (Staphylococcus sp.; strain GC 4551) was 128 µg/mL (≈ 96.3 µM). For the same compound, the “MIC Staphylococcus aureus-SMITH (GC 4543)” value (Staphylococcus sp.; strain SMITH GC 4543) was 64 µg/mL (≈ 48.1 µM), the “MIC Streptococcus agalactiae (GC 4564)” value (Streptococcus sp.) was 32 µg/mL (≈ 24.1 µM) and the “MIC Streptococcus pyogenes (ID-3187)” value (Streptococcus sp.) was 32 µg/mL (≈ 24.1 µM).
